How the values were obtained:
[1] = Metabolic stability in mouse liver microsomes; format: in vitro ADME; conditions: mouse liver microsomes 0.5 mg/mL, NADPH, 37° C.; for CLint scaled at 1 µM: pH 7.4, read-out: MLM_CLint
Experimental: Determinations of the metabolic stability of the compound from the above embodiments, the detailed operation steps are as followed:
1. Preparation of buffer C:
Buffer A: 1.0 L of 0.1 M potassium dihydrogen phosphate buffer (containing 1.0 mM EDTA);
Buffer B: 1.0 L of 0.1 M dipotassium hydrogen phosphate buffer (containing 1.0 mM EDTA);
Buffer C: 500 mL Buffer B was titrated with Buffer A to pH 7.4.
2. 10 mM stock solution preparation:
10 mM test compound: A certain amount of the test compound was weighed and dissolved in DMSO.
10 mM control: 5.455 mg of ketanserin dissolved in 1 mL DMSO.
3. Preparation of the drug solution:
500 μM solution: 5 μL of 10 mM stock solution (see step 2) was added into 95 μL ACN;
1.5 μM dosing solution (dissolved in liver microsome solution):
18.75 μL of 20 mg/mL liver microsomes was added into 479.75 μL of Buffer C, then 1.5 μL of 500 μM solution was added and mixed gently by shaking.
4. Preparation of 6 mM NADPH solution:
15 mg NADPH was weighted, then added into 3 mL of buffer C to prepare a 6 mM NADPH solution.
5. 30 µL of 1.5 μM dosing solution (see step 3) was added into the wells of the 96-well plate set at different time points (0 minutes, 5 minutes, 15 minutes, 30 minutes, 45 minutes), number of dulplicate sample is 2.
6. Preparation of a 0 minutes sample: 135 μL ACN (with internal standard) was added to the 0 minutes well, followed by 15 µL of 6 mM NADPH solution.
7. The 96-well plate containing 1.5 μM dosing solution and NADPH solution were preheated in a 37° C. water bath for 5 minutes.
8. The 15 µL of 6 mM NADPH solution preheated was added into the wells set to 5 minutes, 15 minutes, 30 minutes, 45 minutes, then the reaction was initiated and started counting the time.
10. The sample was vortexed for 10 min, and then centrifuged for 15 minutes on a centrifuge (Thermo Multifuge×3R) using 5594×g.
11. 50 μL of the supernatant was taken from the centrifuged sample, transferred to a 96-well sample plate to which 100 μL of ultrapure water had already been added, mixed, and finally sent to LC-MS/MS for analysis.
Half time (T1/2)=0.693/K (K is the rate constant obtained by linear regression of the logarithm of the concentration as vertical coordinates and the culturing time as the abscissa)
2. According to the equation formula bellow, Excel was used to plot the compound content versus reaction time, as well as half life calculation (min)
Y=(Y0−Plateau)×e^(−K*X)+Plateau
Y0 represents the compound content at 0 minutes; Y represents the compound content; X represents the time point; K represents degration rate constant of the compound; Plateau represents the lowest possible content of the compound (defined herein as 0).

[2] = system: MV-4-11 cells; experiment: Inhibitory effect on MV-4-11 cells (CellTiter-Glo); format: cell-based; conditions: Homo sapiens, MV4-11; 72 hours, CellTiter-Glo; read-out: MV-4-11
[3] = system: SU-DHL-6 cells; experiment: Inhibitory effect on SU-DHL-6 cells (CellTiter-Glo); format: cell-based; conditions: Homo sapiens; 72 hours, CellTiter-Glo; read-out: SU-DHL-6
Experimental: Determinations of the inhibition of the compounds from the above embodiments against SU-DHL-6 cells, the detailed operation steps are as followed:
The 1st Day: Seed the Cells on the Plate
1. The cells were verified that they were in good conditions by observation under microscope;
2. The cells were transferred to a centrifuge tubes, after centrifuged at 1000 rpm for 5 min, the supernatant was discarded;
3. The complete substrate (1640+10% FBS) was added, then blown and patted into single cell suspension, counted by Vi-cell cytometer, the cell suspension was adjusted to desired cell density by the complete medium.
4. The cells were inoculated into a 96 well plate, the cell number was 12000/well at 100 μL per well, 100 μL complete medium was added into the black control;
5. 37° C., 5% CO2 culture overnight.
The 2nd Day: Addition of the Drugs
1. 1000× Compound Plate Preparation
1.1. The test compound was prepared into 10 mM working solution by using DMSO. Then the STS was prepared into 2 mM working solution by using DMSO.
1.2. In the round bottom 96 wells plate, the column 2 of row A to H was added into 60 μL 10 mM test compound (or STS) working solution, columns 3-11 were added into 40 μL DMSO, 20 μL drug solution was pipetted from the column 2 to the column 3, blown and patted for a homogeneous mixture; then 20 μL solution was pipetted from the column 3 to the column 4, blown and patted for a homogeneous mixture, sequently, the drug was diluted by 3 times, 10 concentrations in total. The columns 1 and 12 were supplemented with 40 μL of DMSO.
2. Intermediate plate preparation
A sterile V-bottom 96 deep well plate was used and in each well, 495 μL FBS-free PRMI 1640 medium was added, then 5 μL of the diluted compound (or DMSO) in the 1000× compound plate was pipetted into corresponding position of the V-bottom 96 well plate, blown and patted evenly.
3.1. The cell plate was taken out from the incubator and was observed under microscope. The diluted compound or DMSO in the intermediate plate was added into the cell plate, 11 μL each well.
3.2. The cell was continued to be cultured at 37° C., 5% CO2 for 72 hours.
The 5th Day: CellTiter-Glo Detection of the Cell Activity
1. The CellTiter-Glo buffer and the reaction substrate were taken out from the refrigerator, after balanced to r.t., the buffer was poured into a brown bottle containing the substrate, the bottle was upside down to have the substrate powder sufficientaly dissolved.
2. The cell was observed under microscope; the cell plate was balanced to r.t.
3. The prepared CellTiter-Glo was added into the 96 well plate, at 100 μL/well.
4. The cell plate was placed on a shaker for 10 min, followed by standing at r.t. for 10 min.
5. A white seal film was attached to the bottom of the well plate, and the chemiluminescence signal of each well was detected by the Enspire microplate detector.
6. XLfit was used for data processing. Inhibition rate %=(d-c)/(d-b)×100, while d is the signal value of the DMSO treated group, c is the signal value of the compound treated group, b is signal value of the blank control that only containing medium and DMSO without cells. The data was fitted using the f (x)205[fit=(A+((B−A)/(1+((C/x)^∧D))))] equation in the XLfit software.

| Compound | MLM_T1/2 [1] | CLint scaled at 1 µM [1] [mL/min/kg] | IC50 [2] [nM] | IC50 [3] [nM] |
| --- | --- | --- | --- | --- |
| CCS(=O)(=O)Nc1ccc(Oc2ccc(F)cc2F)c(-c2cn(C)c(=O)c3[nH]ccc23)c1 [ABBV-075] | 81.11 min | 67.3 | 7 | 21 |
| CCS(=O)(=O)Cc1ccc2c(c1)-c1cn(C)c(=O)cc1CN=C2c1ccc(F)cc1 [Compound 4009, 7-(4-fluorophenyl)-2-methyl-10-(ethylsulfonemethyl)-2H-benzo[c]pyrido[3,4-e]azepin-3(5H)-ketone] | 588.07 min | 9.28 | 53 | 83 |
| CCS(=O)(=O)Cc1ccc2c(c1)-c1cn(C)c(=O)cc1[C@H](C)N=C2c1ccc(F)cc1 [Compound 4026, (S)-10-((ethylsulfone)methyl)-7-(4-fluorophenyl)-2,5-dimethyl-2,5-dihydro-3H-benzo[c]pyrido[3,4-e]azepin-3-ketone] | ∞ | – | 4 | 10 |
